The subject of this assay is CD2F1 mice, ip reticulum cell sarcoma, survival T/C. Briefly: NCI In Vivo Anticancer Drug Screen. Data for tumor model Reticulum Cell Sarcoma (Kelley Mouse) (intraperitoneal) in CD2F1 (CDF1) mice. Particulars: endpoint: median survival time, schedule: Q01DX010 (ip), higher = longer survival. On the procedure: The antitumor activity of compounds was measured in mice bearing transplantable tumors. Survival or tumor size were measured and the results are expressed as the measurement made in the treated group (T) divided by the measurement made in the vehicle treated control group (C). The tumor model used in this assay is Reticulum Cell Sarcoma (Kelley Mouse) (intraperitoneal) in CD2F1 (CDF1) mice

[1] abbreviates: dose: 0.25 mg/kg/injection, vehicle: saline.
The mark [2] stands for this setting: dose: 1.0 mg/kg/injection, vehicle: saline.
Where [3] appears, read: dose: 2.0 mg/kg/injection, vehicle: saline.
Where [4] appears, read: dose: 8.0 mg/kg/injection, vehicle: saline.
Setting [5] is: dose: 16.0 mg/kg/injection, vehicle: saline.
The mark [6] stands for this setting: dose: 32.0 mg/kg/injection, vehicle: saline.
Where [7] appears, read: dose: 64.0 mg/kg/injection, vehicle: saline.
Where [8] appears, read: dose: 62.5 mg/kg/injection, vehicle: saline.
[9] abbreviates: dose: 125.0 mg/kg/injection, vehicle: saline.
Setting [10] is: dose: 100.0 mg/kg/injection, vehicle: saline.
Where [11] appears, read: dose: 200.0 mg/kg/injection, vehicle: saline.
[12] abbreviates: dose: 1.25 mg/kg/injection, vehicle: saline.
Setting [13] is: dose: 2.5 mg/kg/injection, vehicle: saline.
Setting [14] is: dose: 5.0 mg/kg/injection, vehicle: saline.
The mark [15] stands for this setting: dose: 10.0 mg/kg/injection, vehicle: saline.
[16] abbreviates: dose: 25.0 mg/kg/injection, vehicle: saline.
The mark [17] stands for this setting: dose: 50.0 mg/kg/injection, vehicle: saline.
Setting [18] is: dose: 1.0 mg/kg/injection, vehicle: other.
Setting [19] is: dose: 2.0 mg/kg/injection, vehicle: other.
Setting [20] is: dose: 4.0 mg/kg/injection, vehicle: other.
Where [21] appears, read: dose: 8.0 mg/kg/injection, vehicle: other.
Setting [22] is: dose: 6.25 mg/kg/injection, vehicle: saline.
The mark [23] stands for this setting: dose: 12.5 mg/kg/injection, vehicle: saline.
[24] abbreviates: dose: 250.0 micrograms/kg/injection, vehicle: saline.
Setting [25] is: dose: 500.0 micrograms/kg/injection, vehicle: saline.

These results are taken from PubChem BioAssay AID340 (DTP/NCI, 2004).

Where “and” joins values, the source holds several entries; their conditions need not be identical. Identical values can stand only once. Toxic doses and inconclusive results are not listed.

Regarding `N#C[C@@H]1C2C=CC(CC2)[C@H]1C#N`, the T/C was 97 % of control under setting [1]; 102 % of control and 105 % of control (dose: 0.5 mg/kg/injection, vehicle: saline); 88 % of control and 94 % of control under setting [2]; 97 % of control and 100 % of control under setting [3].
As for `c1ccc(CNc2ncnc3[nH]ncc23)cc1`, the T/C is 100 % of control and 105 % of control under setting [4]; 100 % of control and 105 % of control under setting [5]; 100 % of control and 105 % of control under setting [6]; 95 % of control and 97 % of control under setting [7].
Consider `O=c1cn[nH]c(=O)[nH]1`, for which the T/C runs as follows: under setting [8], 92 % of control and 100 % of control; under setting [9], 95 % of control and 100 % of control; (dose: 250.0 mg/kg/injection, vehicle: saline) 97 % of control; (dose: 500.0 mg/kg/injection, vehicle: saline) 90 % of control and 102 % of control.
As for `CCN(CC)CCNc1ccc(C)c2sc3ccccc3c(=O)c12`, the T/C under setting [10] is 106 % of control; the T/C under setting [11] is 103 % of control and 106 % of control.
For `O=C(Nc1ccc(C2=NCCN2)cc1)c1ccc(C(=O)Nc2ccc(C3=NCCN3)cc2)c([N+](=O)[O-])c1`, the T/C is 168 % of control (dose: 6.0 mg/kg/injection, vehicle: saline); 255 % of control and 297 % of control under setting [4]; 281 % of control and 300 % of control (dose: 12.0 mg/kg/injection, vehicle: saline).
Consider `Oc1cc(CN(CCCl)CCCl)c(O)cc1CN(CCCl)CCCl`, for which the T/C (dose: 0.63 mg/kg/injection, vehicle: saline) was 100 % of control; the T/C under setting [12] was 100 % of control; the T/C under setting [13] is 106 % of control; the T/C under setting [14] is 100 % of control.
Turning to `C[C@@H]1C[C@@H]([C@H](O)CC2CC(=O)NC(=O)C2)C(=O)[C@@H](C)C1`, the T/C under setting [14] was 97 % of control and 100 % of control; the T/C under setting [15] is 105 % of control and 108 % of control; the T/C (dose: 20.0 mg/kg/injection, vehicle: saline) was 120 % of control; the T/C (dose: 40.0 mg/kg/injection, vehicle: saline) is 105 % of control.
As for `CS(=O)(=O)OCC(O)C(O)C(O)C(O)COS(C)(=O)=O` (stereo not given), the T/C by setting is: under setting [16], 102 % of control; under setting [17], 100 % of control and 111 % of control; under setting [10], 100 % of control and 102 % of control; under setting [11], 100 % of control and 111 % of control; (dose: 400.0 mg/kg/injection, vehicle: saline) 110 % of control.
Regarding `O=C(Nc1ccc(C2=NCCCN2)cc1)c1ccc(NC(=O)c2ccc(C3=NCCCN3)cc2)cc1`, the T/C by setting is: under setting [18], 117 % of control; under setting [19], 208 % of control and 222 % of control; under setting [20], 177 % of control; under setting [21], 122 % of control.
For `O=C(Nc1ccc(NC2=NCCN2)cc1)c1ccc(C(=O)Nc2ccc(NC3=NCCN3)cc2)cc1`, the T/C is 120 % of control and 121 % of control under setting [3]; 168 % of control (dose: 4.0 mg/kg/injection, vehicle: saline); 167 % of control and 200 % of control under setting [4]; 107 % of control and 121 % of control under setting [5].
In the case of `CCCCNc1ncnc2c1cnn2C`, the T/C is 95 % of control and 100 % of control (dose: 31.3 mg/kg/injection, vehicle: saline); 94 % of control and 102 % of control under setting [8]; 90 % of control and 100 % of control under setting [9].
Consider `O=C(Nc1ccc(C2=NCCN2)cc1)c1ccc(C(=O)Nc2ccc(C3=NCCN3)cc2)cc1`, for which the T/C was 168 % of control under setting [20]; 277 % of control and 302 % of control under setting [21]; 242 % of control and 302 % of control (dose: 16.0 mg/kg/injection, vehicle: other); 166 % of control and 231 % of control (dose: 32.0 mg/kg/injection, vehicle: other); 168 % of control (dose: 64.0 mg/kg/injection, vehicle: other).
In the case of `O=C(O)c1[nH]c(=O)[nH]c(=O)c1F`, the T/C is 91 % of control under setting [12]; 94 % of control under setting [13]; 97 % of control and 100 % of control under setting [14]; 94 % of control and 100 % of control under setting [15].
Consider `N=[N+]=CC(=O)OCC(N)C(=O)O` (stereo not given), for which the T/C (dose: 3.13 mg/kg/injection, vehicle: saline) was 106 % of control; the T/C under setting [22] is 113 % of control; the T/C under setting [23] was 120 % of control; the T/C under setting [16] is 116 % of control.
`C1CN1c1nc(N2CC2)nc(N2CC2)n1`: the T/C was 100 % of control (dose: 0.13 mg/kg/injection, vehicle: saline); 100 % of control and 103 % of control under setting [1]; 123 % of control under setting [2].
Regarding `CS(=O)(=O)OCCN(CCOS(C)(=O)=O)c1ccc(N=O)cc1`, the T/C is 103 % of control and 110 % of control under setting [2]; 96 % of control under setting [3]; 116 % of control (dose: 62.5 micrograms/kg/injection, vehicle: saline); 166 % of control under setting [24]; 175 % of control under setting [25].
On to `O=NN(CCCl)C(=O)NCCCl`, for which the T/C is, setting by setting: under setting [22], 194 % of control and 200 % of control; under setting [23], 97 % of control and 110 % of control.
As for `O=C(Nc1ccc(C2=NCCCN2)cc1)c1ccc(C(=O)Nc2ccc(C3=NCCCN3)cc2)cc1`, the T/C runs as follows: (dose: 0.5 mg/kg/injection, vehicle: other) 117 % of control and 120 % of control; under setting [18], 186 % of control and 202 % of control; under setting [19], 248 % of control.
With `CS(=O)(=O)OCCC(=O)N1CCN(C(=O)CCOS(C)(=O)=O)CC1`, the T/C reads like this: under setting [23], 111 % of control and 114 % of control; under setting [17], 114 % of control; under setting [10], 114 % of control.
In the case of `CN(C)c1nc(N(C)C)nc(N(C)C)n1`, the T/C by setting is: (dose: 18.8 mg/kg/injection, vehicle: saline) 100 % of control and 103 % of control; (dose: 37.5 mg/kg/injection, vehicle: saline) 93 % of control and 106 % of control; (dose: 75.0 mg/kg/injection, vehicle: saline) 100 % of control and 109 % of control; (dose: 150.0 mg/kg/injection, vehicle: saline) 100 % of control and 106 % of control.
As to `COc1cc(-c2ccc(Nc3ccccc3C(=O)O)c(OC)c2)ccc1Nc1ccccc1C(=O)O`, the T/C by setting is: under setting [17], 105 % of control; under setting [10], 100 % of control.
With `O=C(Nc1ccc(C2=NCCN2)cc1)c1cccc(C(=O)Nc2ccc(C3=NCCN3)cc2)c1`, the T/C reads like this: under setting [4], 121 % of control; under setting [5], 121 % of control; under setting [6], 157 % of control; under setting [7], 186 % of control and 210 % of control.
As to `COC(=O)[C@@H]1c2cc3c(c(O)c2[C@@H](OC2OC(C)C(OC)C(C)(OC)C2OC)C[C@]1(C)O)C(=O)c1c(O)cc2c(c1C3=O)O[C@H]1O[C@]2(C)[C@H](O)[C@@H](N(C)C)[C@@H]1O` (stereo not given in full), the T/C is, setting by setting: (dose: 63.0 micrograms/kg/injection, vehicle: saline) 103 % of control; (dose: 125.0 micrograms/kg/injection, vehicle: saline) 103 % of control and 105 % of control; under setting [24], 103 % of control and 105 % of control; under setting [25], 100 % of control; (dose: 1000.0 micrograms/kg/injection, vehicle: saline) 94 % of control.
Regarding `N#CCSc1ncnc2nc[nH]c12`, the T/C (dose: 7.5 mg/kg/injection, vehicle: saline) is 100 % of control; the T/C (dose: 15.0 mg/kg/injection, vehicle: saline) is 103 % of control; the T/C (dose: 30.0 mg/kg/injection, vehicle: saline) is 100 % of control and 103 % of control; the T/C (dose: 60.0 mg/kg/injection, vehicle: saline) was 103 % of control and 106 % of control.
`NC(Cc1ccc(N(CCCl)CCCl)cc1)C(=O)O` (stereo not given): the T/C under setting [15] was 100 % of control.
